Tested on: PERCOLL isolated cells
Experiment: Proliferation of PERCOLL isolated whole brain cells
Assay type: cell-based, rat
Details: 20 ng/ml bFGF in vitro
Description: Dissection. Adult female Fischer 344 rats (4-6 months of age) were anesthetized with a mixture of ketamine (44 mg/kg), acepromazine (0.75 mg/kg), and xylazine (4 mg/kg) in 0.9% NaCl and decapitated. The brains were removed and placed into cold phosphate-buffered saline (PBS).
Tissue Preparation. A cell suspension was obtained by pooling the brains from 6 animals from which the cerebella had been trimmed away. The remaining brain tissue was then weighed. The brains were diced into small fragments, and then digested for 40-50 min at 37° C. in Hanks' balanced salt solution containing 0.1% grade II neutral protease (Boehringer Mannheim), 0.01% papain (Worthington), and 0.01% Dnase I (Worthington). The mixture was shaken every five minutes. Every fifteen minutes during the digestion, the tissues were gently disrupted by pipetting the digestion reaction mixture through a 5-ml pipette. The tissue was then rinsed two times with DMEM/F12 containing 10% […] bovine serum, to inactivate digestive enzymes, and filtered through nylon mesh (Nitex, 100 μm pore size), to remove undissociated tissue. The filtered cells were resuspended to a final volume of 10 ml in DMEM/F12/10% FBS.
PERCOLL™ (polyvinylpyrrolidone-coated silica colloids) density gradient preparation and centrifugation. […]

Substance: FGF-2: basic fibroblast growth factor, human recombinant, prepared in E. coli
- proliferation response: inducible to proliferate
